Results as given in patent US7348328B2, “MCH antagonists for the treatment of obesity” (Schering Corporation, priority 2001, dated 2008).
Read-outs that look alike come from different tables or passages of the source.

Target: T1, MCH receptor (Homo sapiens, UniProt Q99705)
T1 construct: expressed in transfected cells; host or cells: CHO cells (membranes)
Test: MCH Receptor Binding Assay
Protocol: MCH Receptor Binding Assay:
Membranes from CHO cells expressing the MCH receptor were prepared by lysing cells with 5 mM HEPES for 15 min at 4C. Cell lysates were centrifuged ([…], 15 min) and the pellet was resuspended in 5 mM HEPES. For each 96-well plate (Microlite, Dynex Technologies), 1 mg of cell membranes were incubated with 10 mg of wheat germ agglutinin SPA beads (Amersham) for 5 min at 4 C. in a volume of 10 ml of binding buffer (25 mM HEPES, 10 mM MGCl2, 10 mM NaCl, 5 mM MnCl2, 0.1% BSA). The membrane/bead mixture was centrifuged (1500×g, 3.5 min), the supernatant was aspirated, and the pellet was resuspended in 10 ml binding buffer. The centrifugation, aspiration and resuspension were then repeated. […] Nonspecific binding was determined by including 1 μM MCH in the binding reaction. The binding reaction was incubated at room temperature for 2 h. Plates were then analyzed in a TOPCOUNT microplate scintillation counter (Packard). Data was analyzed and Ki values were determined using GraphPad Prim.

[1] = Table 1b, preferred compounds, read-out: MCH R1 Ki
[2] = Binding Activity, membranes from CHO cells expressing the MCH receptor, [125I]-MCH, read-out: MCH Ki

T1 sequence (Q99705 whole entry): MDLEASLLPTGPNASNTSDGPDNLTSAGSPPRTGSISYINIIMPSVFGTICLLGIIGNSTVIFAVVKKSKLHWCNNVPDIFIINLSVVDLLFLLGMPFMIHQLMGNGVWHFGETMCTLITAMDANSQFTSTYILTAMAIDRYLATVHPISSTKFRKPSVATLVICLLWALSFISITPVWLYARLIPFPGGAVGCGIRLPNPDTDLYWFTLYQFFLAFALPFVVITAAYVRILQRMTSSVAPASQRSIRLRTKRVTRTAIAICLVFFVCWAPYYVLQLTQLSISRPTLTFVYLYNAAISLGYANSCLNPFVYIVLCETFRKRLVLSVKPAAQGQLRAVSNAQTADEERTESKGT

SMILES | Ki [1] | Ki [2]
CN(C)CCN(C(=O)Nc1ccc(Cl)c(Cl)c1)C1CC=C(c2cccc(C#N)c2)CC1 (stereo not drawn) | 3 nM | 
N#Cc1cccc([C@@]23CC[C@@H](N(CCN4C[C@@H](O)[C@@H](O)C4)C(=O)Nc4ccc(F)c(Cl)c4)CC2C3)c1 (stereo partly drawn) | 18 nM | 
N#Cc1cccc(C2=CCC(N(CCN3CCCC3)C(=O)Nc3ccc(F)c(C(F)(F)F)c3)CC2)c1 (stereo not drawn) | 2.7 nM | 
C[S+]([O-])c1cccc(C23CCC(N(CCCN4CCCC4)C(=O)Nc4ccc(Cl)c(Cl)c4)CC2C3)c1 (stereo not drawn) | 20 nM | 
CC(C)N(CCN(C(=O)Nc1cc(Cl)nc(Cl)c1)[C@@H]1CC[C@@]2(c3cccc(C#N)c3)CC2C1)C(C)CO (stereo partly drawn) | 1.6 nM | 
CC(=O)Nc1cccc([C@@]23CC[C@@H](N(CCN4CCCC4)C(=O)Nc4ccc(F)c(C(F)(F)F)c4)CC2C3)c1 (stereo partly drawn) | 4.6 nM | 
CN1CCN(CCCN(C(=O)Nc2ccc(F)c(Cl)c2)[C@@H]2CC[C@]3(c4cccc(C#N)c4)C[C@@H]3C2)CC1 | 4.2 nM | 
CC(=O)Nc1cccc([C@@]23CC[C@@H](N(CCCN4CCN(C)CC4)C(=O)Nc4ccc(F)c(Cl)c4)CC2C3)c1 (stereo partly drawn) | 0.9 nM | 
N#Cc1cccc([C@@]23CC[C@@H](N(CCCN4CCC4)C(=O)Nc4ccc(F)c(F)c4)CC2C3)c1 (stereo partly drawn) | 3.7 nM | 
N#Cc1ccc(C2=CCC(N(CCN3CCCC3)C(=O)Nc3ccc(F)c(Cl)c3)CC2)cc1 (stereo not drawn) | 11 nM | 
O=C(Nc1ccc(F)c(F)c1)N(CCCN1CCCC1)[C@@H]1CC[C@@]2(c3cccc(-c4ncc[nH]4)c3)CC2C1 (stereo partly drawn) | 5.4 nM | 
O=C(Nc1ccc(F)c(Cl)c1)N(CCN1CCCC1)C1CC=C(c2cccc(Cl)c2)CC1 (stereo not drawn) | 14 nM | 
O=C(Nc1ccc(F)c(C(F)(F)F)c1)N(CCN1CCCC1)C1CC=C(c2cccc(Cl)c2)CC1 (stereo not drawn) | 12 nM | 
CN1CCN(CCCN(C(=O)Nc2ccc(F)c(C(F)(F)F)c2)[C@@H]2CC[C@@]3(c4ccc(C#N)cc4)CC23)CC1 (stereo partly drawn) | 3 nM | 
N#Cc1cccc([C@@]23CCC(N(CCN4CC[C@@H](O)C4)C(=O)Nc4cc(Cl)cc(Cl)c4)CC2C3)c1 (stereo partly drawn) | 3.5 nM | 
N#Cc1cccc([C@@]23CC[C@@H](N(CCCN4CC[C@@H](F)C4)C(=O)Nc4ccc(F)c(F)c4)CC2C3)c1 (stereo partly drawn) | 5 nM | 
CN1CCN(CCCCN(C(=O)Nc2ccc(F)c(Cl)c2)[C@@H]2CC[C@]3(c4cccc(C#N)c4)C[C@H]23)CC1 | 2.2 nM | 
CN1CCN(CCCCN(C(=O)Nc2cc(Cl)nc(Cl)c2)C2CC[C@@]3(c4ccc(C#N)cc4)CC23)CC1 (stereo partly drawn) | 2 nM | 
N#Cc1cccc([C@@]23CC[C@@H](N(CCCN4CC[C@@H](O)C4)C(=O)Nc4ccc(F)c(F)c4)CC2C3)c1 (stereo partly drawn) | 1.2 nM | 
N#Cc1cccc([C@@]23CC[C@@H](N(CCN4CC[C@@H](O)C4)C(=O)Nc4cc(Cl)cc(Cl)c4)CC2C3)c1 (stereo partly drawn) | 13 nM | 
N#Cc1cccc([C@@]23CC[C@@H](N(CCCN4CC[C@@H](O)C4)C(=O)Nc4cc(F)cc(F)c4)CC2C3)c1 (stereo partly drawn) | 1.8 nM | 
CS(=O)(=O)N1CCC(CN(C(=O)Nc2ccc(F)c(C(F)(F)F)c2)[C@@H]2CC[C@@]3(c4cccc(C#N)c4)CC3C2)CC1 (stereo partly drawn) | 26 nM | 

SMILES | Ki [1] | Ki [2]
N#Cc1cccc(C23CCC(N(CCN4CCCC4)C(=O)Nc4cc(Cl)cc(Cl)c4)C2C3)c1 (stereo not drawn) | 15 nM | 
CN1CCN(CCCCN(C(=O)Nc2ccc(F)c(Cl)c2)C2CC[C@@]3(c4ccc(C#N)cc4)CC23)CC1 (stereo partly drawn) | 2.9 nM | 
N#Cc1cccc(C23CCC(N(CCN4CCCC4)C(=O)Nc4ccc(F)c(Cl)c4)C2C3)c1 (stereo not drawn) | 18 nM | 
CN1CCN(CCCN(C(=O)Nc2ccc(F)c(Cl)c2)[C@@H]2CC[C@]3(c4ccc(OC(F)(F)F)cc4)C[C@H]23)CC1 | 13 nM | 
N#Cc1cccc([C@]23CCC(N(CCN4CC[C@@H](O)C4)C(=O)Nc4ccc(F)c(Cl)c4)[C@H]2C3)c1 (stereo partly drawn) | 13 nM | 
CC(C)N(CCF)CCN(C(=O)Nc1cc(Cl)nc(Cl)c1)[C@@H]1CC[C@@]2(c3cccc(C#N)c3)CC2C1 (stereo partly drawn) | 10.2 nM | 
N#Cc1cccc([C@@]23CC[C@@H](N(CCN4C[C@H]5C[C@H]5[C@H]4CO)C(=O)Nc4cc(Cl)nc(Cl)c4)CC2C3)c1 (stereo partly drawn) | 3 nM | 
CC1(C)[C@H]2[C@@H](CO)N(CCCCN(C(=O)Nc3ccc(F)c(C(F)(F)F)c3)[C@@H]3CC[C@@]4(c5ccc(C#N)cc5)C[C@H]34)C[C@H]21 | 8 nM | 
CNS(=O)(=O)NC1CCN(CCCN(C(=O)Nc2ccc(F)c(Cl)c2)[C@@H]2CC[C@@]3(c4cccc(C#N)c4)CC3C2)C1 (stereo partly drawn) | 4.9 nM | 
CS(=O)(=O)N1CCC(CN(C(=O)Nc2ccc(F)c(F)c2)[C@@H]2CC[C@@]3(c4cccc(C#N)c4)CC3C2)CC1 (stereo partly drawn) | 5.4 nM | 
CC(C)N(CCN(C(=O)Nc1ccc(F)c(F)c1)C1CC[C@]2(c3cccc(C#N)c3)CC2C1)C(C)C (stereo partly drawn) | 2.8 nM | 
N#Cc1cccc([C@@]23CC[C@@H](N(CC4CCN(S(=O)(=O)N5CCOCC5)CC4)C(=O)Nc4ccc(F)c(F)c4)CC2C3)c1 (stereo partly drawn) | 45 nM | 
CNCCN(C(=O)Nc1ccc(F)c(Cl)c1)[C@@H]1CC[C@@]2(c3cccc(C#N)c3)CC2C1 (stereo partly drawn) | 9.1 nM | 
CC(C)N(CCN(C(=O)Nc1ccsc1)[C@H]1CC[C@]2(c3cccc(C#N)c3)CC2C1)C(C)C (stereo partly drawn) | 11.2 nM | 
CC(C)N(CCN(C(=O)Nc1cccc(F)c1)[C@H]1CC[C@]2(c3cccc(C#N)c3)CC2C1)C(C)C (stereo partly drawn) | 2.1 nM | 
CCOC(=O)NC1CCN(CCCN(C(=O)Nc2ccc(F)c(F)c2)[C@@H]2CC[C@@]3(c4cccc(C#N)c4)CC3C2)C1 (stereo partly drawn) | 5.9 nM | 
N#Cc1cccc([C@]23CC[C@H](N(CC4CCN(CC5CC5)CC4)C(=O)Nc4ccc(F)c(Cl)c4)CC2C3)c1 (stereo partly drawn) | 10 nM | 
CC(=O)NC1CCN(CCCN(C(=O)Nc2ccc(F)c(F)c2)[C@@H]2CC[C@@]3(c4cccc(C#N)c4)CC3C2)C1 (stereo partly drawn) | 5.8 nM | 
N#Cc1cccc([C@]23CC[C@H](N(CC4CCN(C5CCSC5)CC4)C(=O)Nc4ccc(F)c(Cl)c4)CC2C3)c1 (stereo partly drawn) | 7.5 nM | 
CCNS(=O)(=O)NC1CCN(CCCN(C(=O)Nc2ccc(F)c(F)c2)[C@@H]2CC[C@@]3(c4cccc(C#N)c4)CC3C2)C1 (stereo partly drawn) | 7.1 nM | 
CN1CCN(CCCN(C(=O)Nc2ccc(F)c(Cl)c2)[C@@H]2CC[C@]3(c4cccc(Cl)c4)C[C@H]23)CC1 | 15 nM | 
N#Cc1cccc([C@@]23CC[C@@H](N(CCCN4CCCC4)C(=O)Nc4ccc(F)c(F)c4)CC2C3)c1 (stereo partly drawn) | 1.1 nM | 

SMILES | Ki [1] | Ki [2]
CSc1cccc([C@@]23CC[C@@H](N(CCCN4CCCC4)C(=O)Nc4ccc(F)c(F)c4)CC2C3)c1 (stereo partly drawn) | 22 nM | 
CC(C)N(CCO)CCN(C(=O)Nc1cc(Cl)nc(Cl)c1)C1CC[C@@]2(c3cccc(C#N)c3)CC2C1 (stereo partly drawn) | 1.6 nM | 
CC(=O)Nc1cccc(C23CC[C@@H](N(CCN4CC[C@@H](O)C4)C(=O)Nc4ccc(F)c(C(F)(F)F)c4)CC2C3)c1 (stereo partly drawn) | 4.8 nM | 
CN(C)CCN(C(=O)Nc1ccc(F)c(Cl)c1)[C@@H]1CC[C@]2(c3cccc(C#N)c3)C[C@H]12 [Example 187] |  | 14 nM
N#Cc1cccc([C@]23CC[C@@H](N(CCN4CCCC4)C(=O)Nc4cc(Cl)cc(Cl)c4)[C@H]2C3)c1 [Example 188] |  | 15 nM
N#Cc1cccc([C@]23CC[C@@H](N(CCN4CCCC4)C(=O)Nc4ccc(F)c(Cl)c4)[C@H]2C3)c1 [Example 189] |  | 18 nM
N#Cc1cccc([C@@]23CCC(N(CCN4CC[C@@H](O)C4)C(=O)Nc4ccc(F)c(Cl)c4)[C@@H]2C3)c1 (stereo partly drawn) [Example 190] |  | 13 nM
N#Cc1cccc([C@]23CC[C@@H](N(CCN4CC[C@@H](O)C4)C(=O)Nc4ccc(F)c(Cl)c4)[C@H]2C3)c1 [Example 191] |  | 22 nM
N#Cc1cccc([C@]23CC[C@@H](N(CCN4CC[C@@H](O)C4)C(=O)Nc4ccc(F)c(C(F)(F)F)c4)[C@H]2C3)c1 [Example 193] |  | 7.1 nM
N#Cc1cccc([C@]23CC[C@@H](N(CCN4CCCCC4)C(=O)Nc4ccc(F)c(Cl)c4)[C@H]2C3)c1 [Example 194] |  | 4.1 nM
CN(C)CCCCN(C(=O)Nc1ccc(F)c(Cl)c1)[C@@H]1CC[C@]2(c3cccc(C#N)c3)C[C@H]12 [Example 195] |  | 10 nM
N#Cc1cccc([C@]23CC[C@@H](N(CCCCN4CCCC4)C(=O)Nc4ccc(F)c(Cl)c4)[C@H]2C3)c1 [Example 196] |  | 3.9 nM
O=C(Nc1ccc(F)c(C(F)(F)F)c1)N(CCN1CC[C@@H](O)C1)[C@@H]1CC[C@]2(c3cccc(Br)c3)C[C@H]12 [Example 197] |  | 79 nM
N#Cc1cccc([C@]23CC[C@@H](N(CCN4CC[C@@H](O)C4)C(=O)Nc4ccc(F)c(C(F)(F)F)c4)[C@H]2C3)c1 [Example 198] |  | 11 nM
N#Cc1cccc([C@@]23CCC(N(CCN4CC[C@@H](O)C4)C(=O)Nc4ccc(F)c(C(F)(F)F)c4)[C@@H]2C3)c1 (stereo partly drawn) [Example 199] |  | 23 nM
CN1CCN(CCN(C(=O)Nc2ccc(F)c(C(F)(F)F)c2)[C@@H]2CC[C@]3(c4cccc(C#N)c4)C[C@H]23)CC1 [Example 206] |  | 30 nM
CCCN1CCN(CCN(C(=O)Nc2ccc(F)c(C(F)(F)F)c2)[C@@H]2CC[C@]3(c4cccc(C#N)c4)C[C@H]23)CC1 [Example 207] |  | 22 nM
CC(C)CN1CCN(CCN(C(=O)Nc2ccc(F)c(C(F)(F)F)c2)[C@@H]2CC[C@]3(c4cccc(C#N)c4)C[C@H]23)CC1 [Example 208] |  | 9 nM
N#Cc1cccc([C@]23CC[C@@H](N(CCN4CCN(CC5CC5)CC4)C(=O)Nc4ccc(F)c(C(F)(F)F)c4)[C@H]2C3)c1 [Example 209] |  | 10 nM
N#Cc1cccc([C@]23CC[C@@H](N(CCN4CCNCC4)C(=O)Nc4ccc(F)c(C(F)(F)F)c4)[C@H]2C3)c1 [Example 210] |  | 20 nM
N#Cc1cccc([C@]23CC[C@@H](N(CCCCN4CCOCC4)C(=O)Nc4ccc(F)c(C(F)(F)F)c4)[C@H]2C3)c1 [Example 225] |  | 2.6 nM
CN1CCN(CCCCN(C(=O)Nc2ccc(F)c(C(F)(F)F)c2)[C@@H]2CC[C@]3(c4cccc(C#N)c4)C[C@H]23)CC1 [Example 226] |  | 2.2 nM
